Numbers after ± are expanded uncertainties.
What was measured:
[1] = Solid-liquid equilibrium temperature; conditions: 101 kPa; Crystal; DTA
[2] = Molar enthalpy of transition or fusion; conditions: Crystal; DSC

- Solid-liquid equilibrium temperature [1]: 384.15 ± 0.25 K
- Molar enthalpy of transition or fusion [2]: 4.49 ± 1.2 kcal/mol
Compound: CCc1ccc2c(c1)C(=O)c1ccccc1C2=O [2-ethyl-9,10-anthracenedione]

From the NIST ThermoML archive (doi:10.1021/acs.jced.6b00334)
